Data published in US9289381B2, “Stabilization and storage of biological pharmaceutical compositions” (The University of North Carolina at Charlotte, priority 2009, dated 2016).
Several values for one entry are separate records, joined by “and”; a condition that tells them apart may be missing. Equal entries are not always repeated. Where two headings read alike, the source gives them in different places.

How the values were obtained:
[1] = Osmolality by vapor pressure osmometer, osmotic coefficient; format: physicochemical
[2] = test system: J774 murine macrophage cell line
[3] = test system: J774 murine macrophage cell line; test: cells; settings: Mus musculus, J774, 48 h
[4] = 350 mg/ml vs 1 mg/ml, aqueous solvent; cited from earlier work
[5] = test system: B16-F10 melanoma cells
[6] = test system: HT-2 cells
[7] = Yoshizawa-Fujita 2007; cited from earlier work
[8] = test system: mouse splenocytes; settings: 24 h; for concentration with cytotoxicity (viability diminishes): splenocytes, medium without added buffer
[9] = cited from earlier work
[10] = read-out: Log EC50, μM (Dose Response Model) (converted)
[11] = 100 mM solutions in deionized water

C[N+](C)(C)CCO.[Cl-] [Choline chloride, reference compound]
Osmotic Coef., φ in H2O [1]: 0.86
EC50 [2]: 33.7 mM
EC50 [3]: 34000 µM
EC50 [3, 10]: 33900 µM

Choline dibutyl phosphate [CDBP]
Osmotic Coef., φ in H2O [1]: 0.90
osmotic coefficient (φ) [1]: 0.9
EC50 [2]: 9.1 mM
Log EC50, μM (Dose Response Model) [2]: 3.96 (3) μM
anion effect ratio (AR) [2]: 3.7

OC[C@H]1O[C@H](O[C@H]2O[C@H](CO)[C@@H](O)[C@H](O)[C@H]2O)[C@H](O)[C@@H](O)[C@@H]1O [Trehalose, reference compound]
Osmotic Coef., φ in H2O [1, 11]: 1.01
EC50 [3]: > 100000 µM

CCCCC(CC)COP(=O)(O)OCC(CC)CCCC.CN(C)CCO (stereo not shown) [CBEH, Choline bis(2,ethyl hexyl) phosphate]
osmotic coefficient (φ) ([1]; 100 mM in water, 1 indicates 100% dissociation): 0.3
Osmotic Coef., φ in H2O [1, 11]: 0.31
anion effect ratio (AR) [2]: 113
shape of dose response [2]: hormetic response
Log EC50, μM (Dose Response Model) ([2]; J774, 48 h, value is the logarithm of EC50, error of last digit in parentheses, equation 1): 2.47 (3) μM
Log EC50, μM (Logistic Model) ([2]; J774, 48 h, value is the logarithm of EC50, modified (hormesis) model, equation 2, error of last digit in parentheses): 2.43 (3) μM
EC50 ([2]; J774, 48 h exposure): 0.3 mM

fibrinogen
increase of transition temperature at the higher concentration [4]: 3 °C

C[N+](C)(C)CCO.O=P([O-])(O)O [CDHP, choline dihydrogen phosphate]
concentration range with no cytotoxic activity detected ([5]; buffered medium ([…] (w/v) sodium bicarbonate), 24 h): 0 to 80 mM
concentration not cytotoxic ([5]; final culture medium concentration): 1 to 30 mM
cytotoxic activity ([5]; up to 80 mM C-DHP, DMEM F12 complete medium, 24 h, not buffered): doesn't demonstrate any significant cytotoxic activity
cytotoxic effect toward HT-2 lymphocytes [6]: no immediate cytotoxic effect
concentration range not cytotoxic ([6]; mouse): 0 to 30 mM
thermal stability by thermal gravimetric analysis [7]: up to 200 °C
shape of dose response [2]: hormetic response
anion effect ratio (AR) ([2]; mouse, pH 7.53): 1.7
EC50 [3]: 20000 µM
EC50 [3, 10]: 20400 µM
EC50 ([3]; read-out: Log EC50, μM (Logistic Model) (converted)): 19100 µM
concentration range with no cytotoxic activity detected ([8]; buffered medium ([…] (w/v) sodium bicarbonate)): 0 to 80 mM
concentration with cytotoxicity (viability diminishes) [8]: > 35 mM and > 40 mM
concentration with cytotoxicity (viability diminishes) ([8]; listed as Choline-DHP): > 30 mM

[Cl-].[Na+] [Sodium chloride, reference compound]
Osmotic Coef., φ in H2O [1]: 0.91
EC50 [2]: 63 mM and 62.8 mM
Log EC50, μM (Dose Response Model) [2]: 4.8 (1) μM

cyt C: cytochrome c, protein of earlier literature studies in 80% w/w CDHP
thermal transition midpoint temperature before shift ([9]; Fujita 2006, 2007): 80 C.°
concentration dissolved ([9]; in 80% w/w CDHP (Fujita 2005, 2006)): 37 mg/mL
thermal transition midpoint temperature after shift ([9]; stabilized in CDHP, Fujita 2006, 2007): 120 C.°

hemoglobin
increase of transition temperature at the higher concentration [4]: 8 °C
